A value given as a limit tells only on which side of the number the result lay.

Series [1] deals with Capan-1 Human pancreatic cancer cells. Nature of the series: In vivo antitumoral efficacy, Capan-1 subcutaneous xenograft. Conditions: Capan-1 xenograft in Balb/c nude mice. How it is done: To evaluate the in vivo antitumoral efficacy, the invented compounds (I-80˜171) was determined as a result to follows.
Capan-1 Human pancreatic cancer cells were established as subcutaneous xenografts by injection of 8×10^6 cells into the flanks of adult female Balb/c nude mice. Mice with established tumors (160-250 mm^3) were selected for study (n=6/treatment group). The test compounds were formulated in DW and administered orally (po) at a dose of 30˜200 mg/kg. The vehicle alone was administered to control groups. Animals were dosed 5 days per week (Monday through Friday) for 3 consecutive weeks.
Animals were weighed and tumor size was determined twice weekly by caliper measurements, and tumor volumes were calculated (volume=[…] (mm^3), where l and w refer to the larger and smaller dimensions collected at each measurement). The mean tumor volumes of each group were calculated. The change in mean treated tumor volume was divided by the change in mean control tumor volume, multiplied by 100 and subtracted from 100% to give the tumor growth inhibition for each group.

Another series in a line: Solubility test in water. The format is physicochemical. Conditions: 25° C., atmospheric pressure. How it is done:
To evaluate the solubility, the invented compounds (I-159, I-161 and I-171) was determined as follows. The compounds was dissolve in water (1 mL, 10 mL and 100 mL) at 25° C. under an atmospheric pressure.

The nature of a further series: Mouse pharmacokinetics. Conditions: Balb/c male mice, blood samples 15 to 1140 min, LC-MS/MS. Further details: concentration or dose not given beside the values. The series is classed as in vivo. On the procedure: To evaluate the pharmacokinetics test, the invented compounds (from I-25 to I-1171) were determined as follows. Blood samples are collected at 15, 30, 60, 120, 240, 480, 1140 min. Quantification is by using a LC-MS/MS method specific to the selected compound. Pharmacokinetics parameters are calculated using WinNonLinnon compartmental analysis software.

For series [2], the system named is LNCaP prostate cancer cell line. The series is described as follows: Cell viability assay (LNCaP). The following applies: Homo sapiens, 264 h; LNCaP cells, treated 11 days. The format is cell-based. How it is done: 4. Cell Viability Assay (LNCaP)
Cell viability assay was performed by using LNCaP cell line to measure cytotoxicity of compounds in the present invention. LNCaP prostate cancer cell line was seeded into 96-well plates at 37° C. under 5% CO2 atmosphere using RPMI-1640 (Hyclone) containing 10% FBS (Hyclone). After 24 hr incubation, cells were treated with the invented compounds at various concentrations for 11 days. The medium was changed every 3 to 4 day. 11 days later, A fluorescence reagent was used to determine the IC50 values.

The test system of series [3] is MDA-MB-436 breast cancer cell line. The series is described as follows: Cell viability assay (MDA-MB-436). The series is classed as cell-based. The following applies: Homo sapiens, 144 h; MDA-MB-436 cells, treated 6 days. In outline:
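MDA-MB-436 breast cancer cells in DMEM/F12 with 10% FBS, treated 24 h after seeding with graded compound concentrations for 6 days at 37 °C, 5% CO2, medium changed every 3 days. Viability read with a fluorescence reagent; IC50 derived.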

Series [4] relates to Capan-1 pancreatic cancer cell line. Nature of the series: Cell viability assay (Capan-1). The format is cell-based. Conditions: Homo sapiens, 240 h; Capan-1 cells, treated 10 days. How it is done:
3. Cell Viability Assay (Capan-1)
Cell viability assay was performed by using Capan-1 cell line to measure cytotoxicity of compounds in the present invention. Capan-1 pancreatic cancer cell line was seeded into 96-well plates at 37° C. under 5% CO2 atmosphere using IMDM (Sigma) containing 10% FBS (Hyclone). After 24 hr incubation, cells were treated with the invented compounds at various concentrations for 10 days. After 7-day incubation, the medium was changed. 10 days later, A fluorescence reagent was used to determine the IC50 values.

For a further series, the target named is T1, Tankyrase-1 (Homo sapiens, UniProt O95271).
T1 sequence (O95271 1-1327): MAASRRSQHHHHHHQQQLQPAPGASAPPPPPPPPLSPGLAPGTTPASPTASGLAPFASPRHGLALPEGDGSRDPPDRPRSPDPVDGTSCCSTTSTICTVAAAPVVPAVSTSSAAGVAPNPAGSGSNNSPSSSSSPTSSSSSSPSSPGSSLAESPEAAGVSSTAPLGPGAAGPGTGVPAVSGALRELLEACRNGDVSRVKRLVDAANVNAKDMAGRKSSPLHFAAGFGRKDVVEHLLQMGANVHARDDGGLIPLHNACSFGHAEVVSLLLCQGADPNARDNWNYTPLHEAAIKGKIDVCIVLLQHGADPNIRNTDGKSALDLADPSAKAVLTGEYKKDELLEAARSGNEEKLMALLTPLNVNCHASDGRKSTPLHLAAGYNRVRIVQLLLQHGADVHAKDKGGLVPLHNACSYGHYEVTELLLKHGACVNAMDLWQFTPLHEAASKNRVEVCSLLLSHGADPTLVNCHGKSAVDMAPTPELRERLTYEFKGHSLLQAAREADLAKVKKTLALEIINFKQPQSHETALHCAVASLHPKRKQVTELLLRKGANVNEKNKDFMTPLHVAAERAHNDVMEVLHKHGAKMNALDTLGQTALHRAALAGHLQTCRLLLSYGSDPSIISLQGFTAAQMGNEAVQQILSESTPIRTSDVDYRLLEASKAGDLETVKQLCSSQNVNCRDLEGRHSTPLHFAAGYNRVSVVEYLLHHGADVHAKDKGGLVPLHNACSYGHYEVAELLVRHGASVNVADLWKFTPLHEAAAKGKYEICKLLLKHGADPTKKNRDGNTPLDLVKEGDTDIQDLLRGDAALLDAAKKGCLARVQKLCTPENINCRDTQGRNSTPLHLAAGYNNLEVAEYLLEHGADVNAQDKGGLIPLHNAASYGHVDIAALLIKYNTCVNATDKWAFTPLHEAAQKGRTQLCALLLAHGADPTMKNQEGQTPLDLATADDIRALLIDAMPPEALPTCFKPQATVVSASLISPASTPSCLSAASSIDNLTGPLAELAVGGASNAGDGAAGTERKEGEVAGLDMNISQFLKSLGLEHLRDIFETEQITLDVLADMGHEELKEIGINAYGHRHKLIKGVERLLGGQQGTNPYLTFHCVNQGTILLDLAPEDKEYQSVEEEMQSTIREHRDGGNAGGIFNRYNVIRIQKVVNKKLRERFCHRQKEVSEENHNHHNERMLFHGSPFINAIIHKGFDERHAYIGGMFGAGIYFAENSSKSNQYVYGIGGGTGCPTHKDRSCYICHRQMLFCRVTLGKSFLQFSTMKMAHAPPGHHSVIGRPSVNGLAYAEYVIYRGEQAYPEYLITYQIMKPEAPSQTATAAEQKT
Nature of the series: Tankyrase-1 enzyme assay. Conditions: 1 hr at room temperature, chemiluminescent readout. The series is classed as biochemical. How it is done:
5. Tankyrase-1 Enzyme Assay
Tankyrase-1 enzyme assay was performed to determine Tankyrase-1 inhibitory activity of compounds in the present invention. The enzymatic reaction was conducted by coating the plate with substrates of tankyrase-1, and then the plate was washed. Compounds in the present invention serially diluted in DMSO were added to the reaction buffer activating tankyrase-1, and incubated for 1 hr at room temperature. After stopping the reaction, the plate was washed, and streptavidin-HRP was added to each well. IC50 was calculated by adding chemiluminescent substrate and immediately reading the sample in a microplate reader (Biotek).

A word on the AUC: it is the area under the concentration-time curve, a measure of exposure. With `CC(C)NC1CN(C(=O)c2cc(Cc3n[nH]c(=O)c4ccccc34)ccc2F)C1.Cl` [Compound I-159, 4-(4-fluoro-3-(3-(isopropylamino)azetidine-1-carbonyl)benzyl)phthalazin-1(2H)-one hydrochloride], the “% TGI” value is reported as 59.4% in series [1] (100 mg/kg po qd x 5, 3 consecutive weeks) and 69.4% in series [1] (200 mg/kg po qd x 5, 3 consecutive weeks). In addition, the “Solubility class in words” value in “Solubility test in water” is “Sparingly soluble”. Moreover, in the series “Mouse pharmacokinetics”, the AUC is 472 ng·h/mL.

The IC50 is the concentration needed to halve the response being measured. On to `O=C(c1cc(Cc2n[nH]c(=O)c3ccccc23)ccc1F)N1CC(NC2CCCC2)C1` [Compound I-27, 4-(3-(3-(cyclopentylamino)azetidine-1-carbonyl)-4-fluorobenzyl)phthalazin-1(2H)-one], for which the 50% inhibitory concentration (IC50) in series [2] was 50 to 300 nM; in series [3], ≤ 5 nM; in series [4], 50 to 300 nM; against Tankyrase-1 it was > 1000 nM. In the series “Mouse pharmacokinetics”, this compound gave an area under the curve (AUC) of 472 ng·h/mL.

Consider `O=C(c1cc(Cc2n[nH]c(=O)c3ccccc23)ccc1F)N1CC(Nc2ccc(Cl)nn2)C1` [Compound I-114, 4-(3-(3-((6-chloropyridazin-3-yl)amino)azetidine-1-carbonyl)-4-fluorobenzyl)phthalazin-1(2H)-one], for which the half-maximal inhibitory concentration (IC50) is 5 to 50 nM in series [2], 300 to 1000 nM in series [3] and > 1000 nM at Tankyrase-1.

In the case of `CC(C)NC1CN(C(=O)c2cc(Cc3n[nH]c(=O)c4ccccc34)ccc2F)C1` [Compound I-32, 4-(4-fluoro-3-(3-(isopropylamino)azetidine-1-carbonyl)benzyl)phthalazin-1(2H)-one], the IC50 in series [2] was 50 to 300 nM; in series [3], ≤ 5 nM; in series [4] it was 50 to 300 nM; on Tankyrase-1, > 1000 nM.

With `CC(C)CNC1CN(C(=O)c2cc(Cc3n[nH]c(=O)c4ccccc34)ccc2F)C1.Cl` [Compound I-161, 4-(4-fluoro-3-(3-(isobutylamino)azetidine-1-carbonyl)benzyl)phthalazin-1(2H)-one hydrochloride], the “Solubility class in words” value in the series “Solubility test in water” is reported as “Sparingly soluble”. Also, the exposure (AUC) in the series “Mouse pharmacokinetics” is 1020 ng·h/mL.

On to `N#CC1(NC2CN(C(=O)c3cc(Cc4n[nH]c(=O)c5ccccc45)ccc3F)C2)CCC1` [Compound I-99, 1-((1-(2-fluoro-5-((4-oxo-3,4-dihydrophthalazin-1-yl)methyl)benzoyl)azetidin-3-yl)amino)cyclobutanecarbonitrile], for which the IC50 fell in the range of 300 to 1000 nM in series [2], 5 to 50 nM in series [3], 300 to 1000 nM in series [4] and 300 to 1000 nM against Tankyrase-1. In “Mouse pharmacokinetics”, this compound showed an AUC of 586 ng·h/mL.

As for `Cl.O=C(c1cc(Cc2n[nH]c(=O)c3ccccc23)ccc1F)N1CC(CNC2CC2)C1` [Compound I-171, 4-(3-(3-((cyclopropylamino)methyl)azetidine-1-carbonyl)-4-fluorobenzyl)phthalazin-1(2H)-one hydrochloride], the “% TGI” value in series [1] (30 mg/kg po qd x 5, 3 consecutive weeks) is 42.1%; in series [1] (60 mg/kg po qd x 5, 3 consecutive weeks), 69.7%. For the same compound, the “Solubility class in words” value in “Solubility test in water” is “Sparingly soluble”. This compound also showed an AUC in “Mouse pharmacokinetics” of 673 ng·h/mL.

Regarding `CC(C)(C)NCC1CN(C(=O)c2cc(Cc3n[nH]c(=O)c4ccccc34)ccc2F)C1` [Compound I-147, 4-(3-(3-((tert-butylamino)methyl)azetidine-1-carbonyl)-4-fluorobenzyl)phthalazin-1(2H)-one], the IC50 in series [3] was 300 to 1000 nM; against Tankyrase-1 it was > 1000 nM.

Turning to `O=C(c1cc(Cc2n[nH]c(=O)c3ccccc23)ccc1F)N1CC(NCC2CC2)C1` [Compound I-33, 4-(3-(3-((cyclopropylmethyl)amino)azetidine-1-carbonyl)-4-fluorobenzyl)phthalazin-1(2H)-one], the 50% inhibitory concentration (IC50) is 300 to 1000 nM in series [2], ≤ 5 nM in series [3], 300 to 1000 nM in series [4] and > 1000 nM on Tankyrase-1. In “Mouse pharmacokinetics”, this compound showed an AUC of 1020 ng·h/mL.

Consider `O=C(c1cc(Cc2n[nH]c(=O)c3ccccc23)ccc1F)N1CC(CNc2ccccc2)C1` [Compound I-150, 4-(4-fluoro-3-(3-((phenylamino)methyl)azetidine-1-carbonyl)benzyl)phthalazin-1(2H)-one], for which the figures for the half-inhibitory concentration (IC50) (in series [3]; against Tankyrase-1) were 50 to 300 nM and > 1000 nM, respectively.

Regarding `O=C(c1cc(Cc2n[nH]c(=O)c3ccccc23)ccc1F)N1CC[C@@H](Nc2ncc(Br)cn2)C1` [Compound I-130, (R)-4-(3-(3-((5-bromopyrimidin-2-yl)amino)pyrrolidine-1-carbonyl)-4-fluorobenzyl)phthalazin-1(2H)-one], the values for the IC50 (in series [3]; at Tankyrase-1) were ≤ 5 nM and 50 to 300 nM, respectively.

The record behind these values is US9844550B2, “Phtalazinone derivatives and manufacturing process thereof” (ILDONG PHARM CO., LTD., priority 2013, dated 2017).
